Literature values in article PMC4791274, “Cerdulatinib, a novel dual SYK/JAK kinase inhibitor, has broad anti-tumor activity in both ABC and GCB types of diffuse large B cell lymphoma” (Oncotarget, 2015).

Tests used:
[1] = tested on: R/R DLBCL; set-up: method as in PMID 26193343; settings: phase II, 80 R/R DLBCL; cited from earlier work
[2] = tested on: DLBCL patients; settings: available clinical data; cited from earlier work
[3] = tested on: relapsed/refractory (R/R) DLBCL patients; set-up: method as in PMID 19965662; settings: 5 of 23 R/R DLBCL patients, phase I/II; cited from earlier work
[4] = tested on: R/R patients (DLBCL); set-up: method as in PMID 17389337; settings: number of patients, in 55 R/R patients; cited from earlier work
[5] = tested on: LY4 cell line; set-up: method as in PMID 22025527; settings: LY4, lacks surface immunoglobulins; cited from earlier work
[6] = tested on: LY3 cell line; set-up: method as in PMID 22025527; settings: cited from earlier work
[7] = tested on: DLBCL cells; settings: cited from earlier work
[8] = tested on: DHL2 cell line; set-up: method as in PMID 22025527; settings: cited from earlier work

For `C=CC(=O)N1CCC[C@@H](n2nc(-c3ccc(Oc4ccccc4)cc3)c3c(N)ncnc32)C1` [ibrutinib], the “response rate of all DLBCL tumors” value [1] is given as 19%, the “responsive tumors, ABC subtype” value [1] is given as 37% and the “responsive tumors, GCB subtype” value [1] is given as 5%.
In the case of `COc1cc(Nc2ncc(F)c(Nc3ccc4c(n3)N(COP(=O)(O)O)C(=O)C(C)(C)O4)n2)cc(OC)c1OC` [Fostamatinib], the “fraction of DLBCL patients in whom active” value [2] is listed as ≤ 20% and the objective response [3] is listed as 22%.
For `Cn1cc(C2=C(c3cn(C4CCN(Cc5ccccn5)CC4)c4ccccc34)C(=O)NC2=O)c2ccccc21` [Enzastaurin], the “fraction of DLBCL patients in whom active” value [2] is listed as ≤ 20%, the complete responses [4] is listed as 3 and the stable disease [4] is listed as 1.
In the case of `Cc1cccc(Nc2nc(N[C@@H]3CCCC[C@@H]3N)ncc2C(N)=O)c1` [PRT060318], the “sensitivity to selective SYK inhibition” value [5] is given as “resistant”, the “sensitivity to SYK selective inhibitor” value [6] is given as “insensitive” and the “impact on cell viability” value [7] is given as “minimal impact on cell viability”. The “sensitivity to SYK selective inhibitor” value [8] was “insensitive”.
In the case of `Cc1nc(Nc2ncc(C(=O)Nc3c(C)cccc3Cl)s2)cc(N2CCN(CCO)CC2)n1` [dasatinib], the “impact on cell viability” value [7] is listed as “minimal impact on cell viability”.
